The target in experiment [1] is T1, 5-HT3 receptors (Rattus norvegicus, UniProt P35563).
T1 sequence (P35563 24-483): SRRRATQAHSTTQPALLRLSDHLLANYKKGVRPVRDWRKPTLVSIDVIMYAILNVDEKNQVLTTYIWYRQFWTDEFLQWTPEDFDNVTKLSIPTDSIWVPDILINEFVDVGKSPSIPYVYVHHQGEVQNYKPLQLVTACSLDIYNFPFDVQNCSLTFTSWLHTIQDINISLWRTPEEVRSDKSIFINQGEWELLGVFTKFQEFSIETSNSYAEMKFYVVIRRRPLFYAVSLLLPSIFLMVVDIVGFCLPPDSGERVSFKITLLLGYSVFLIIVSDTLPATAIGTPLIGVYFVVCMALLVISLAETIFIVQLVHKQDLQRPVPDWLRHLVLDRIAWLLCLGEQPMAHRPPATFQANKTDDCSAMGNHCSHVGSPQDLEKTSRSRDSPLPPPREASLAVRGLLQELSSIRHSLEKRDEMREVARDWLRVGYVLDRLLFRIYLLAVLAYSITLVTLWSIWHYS
The experiment is described as follows: biochemical. The arrangement: the cortical tissue from 4 animals was homogenized in 20 volumes of HEPES; from tissue; host or cells: cerebral cortical membranes of male rats (about 200 g). The format is binding.
Experimental: The potency of the compounds of formula (I') in displacing [^3 H]
For the preparation of cerebral membranes, male rats weighing about 200 g and sacrificed by decapitation were employed. […] In summary, the cortical tissue from 4 animals was homogenized in 20 volumes of HEPES and kept at 4° C. until used in the binding assays.

Experiment [2] has as its target T1, 5-HT3 receptors. Put plainly: Bezold-Jarish test in the anaesthetised rat (reduction of heart rate). The class given is in vivo. The arrangement: evokes in the anaesthetised rat, a short-lived reduction of heart rate (Bezold-Jarish effect); from tissue; host or cells: whole animal: urethane-anaesthetised Sprague-Dawley rat. As to conditions: for ED50: rat, read-out: ID50 i.v. (dose which inhibits by 50% the heart rate); for inhibition of the Bezold-Jarish effect evoked by compounds of formula (I'): anaesthetised rat. The protocol:
Selective 5-HT3 agonist activity of the compounds of formula (I') was confirmed in vivo in the Bezold-Jarish test. In this test, intravenous administration of the compounds of formula (I') evokes in the anaesthetised rat, a short-lived reduction of heart rate (Bezold-Jarish effect).
More particularly, the Bezold-Jarish effect evoked by the compounds of formula (I') was evaluated using Sprague-Dawley rats weighing from 200 to 300 g, anaesthetised with urethane 1.25 g/kg i.p. The blood pressure was recorded from the carotid artery and heart rate was evaluated, as pulse frequency, by means of a cardiotachometer. A catheter was inserted into the jugular vein for the administration of the substances.

Experiment [3] has as its system 5-HT3 receptors (mice striatum). Put plainly: turning test in mice. The format is in vivo. As to conditions: for turning behaviour after injection into the mice striatum: intrastriatal injection, inhibited by 5-HT3 receptor antagonists. From the text:
CM 57227 was also studied in the "turning" test carried out as described by P. Worms et al. in Life Sciences, 1986, 39, 2199-2208.

For another experiment, the target named is 5-HT1B receptors (Rattus norvegicus, UniProt P28564). Put plainly: displacement of labelled specific ligand from 5-HT1B receptors. The format is binding. To be noted: no affinity. From the text: (§1) This affinity for 5-HT3 receptors is also selective.
Another experiment deals with T2, central 5-HT3 receptors (Mus musculus, UniProt P23979).
T2 construct: from tissue; host or cells: cortical cerebral membranes of mice dosed intraperitoneally
The experiment is described as follows: ex vivo inhibition of [3H] BRL 43694 specific binding to cortical cerebral membranes in mice.

The next experiment addresses adrenergic sites α2. The experiment is described as follows: displacement of labelled specific ligand from adrenergic sites α2. The format is binding. To be noted: no affinity.
Source text: as §1

Experiment [4] deals with 5-HT3 receptors. The experiment is described as follows: fecal excretion in rats (intestinal prokinetic activity). The format is in vivo. The protocol:
Said activity was investigated by means of a test aimed at evaluating fecal excretion in rats. […] The compounds of formula (I') to be tested were administered subcutaneously. The treatment schedule provided for 8 animals in each group. At the time of drug treatment, the rectal lumen was manually emptied from any residual feces and the animals were then placed again into their cages. 90 Minutes after the treatment the fecal pellets were collected, their number was determined and their wet weight measured. They were then put in the oven and dried for 10 hours at 40° C. for the determination of the dry weight. The parameter used to evaluate the activity of the test compounds was the dry weight (in grams) of the feces excreted during the 90 minutes following the subcutaneous administration of the test compound.

The target of another experiment is serotonin uptake sites (Homo sapiens, UniProt P31645). Put plainly: [3H] paroxetine displacement test. The format is binding.
Source text: as §1

The next experiment has as its target adrenergic sites α1. The experiment is described as follows: displacement of labelled specific ligand from adrenergic sites α1. The format is binding. As to conditions: no affinity.
Source text: as §1

A further experiment deals with dopaminergic sites D1 (Homo sapiens, UniProt P21728). The experiment is described as follows: displacement of labelled specific ligand from dopaminergic sites D1. The class given is binding. As to conditions: no affinity.
Source text: as §1

The next experiment deals with adrenergic sites β1 (Homo sapiens, UniProt P08588). Put plainly: displacement of labelled specific ligand from adrenergic sites β1. The format is binding. To be noted: no affinity.
Source text: as §1

A further experiment has as its target T3, 5-HT1A receptors (Homo sapiens, UniProt P08908).
T3 sequence (P08908 1-422): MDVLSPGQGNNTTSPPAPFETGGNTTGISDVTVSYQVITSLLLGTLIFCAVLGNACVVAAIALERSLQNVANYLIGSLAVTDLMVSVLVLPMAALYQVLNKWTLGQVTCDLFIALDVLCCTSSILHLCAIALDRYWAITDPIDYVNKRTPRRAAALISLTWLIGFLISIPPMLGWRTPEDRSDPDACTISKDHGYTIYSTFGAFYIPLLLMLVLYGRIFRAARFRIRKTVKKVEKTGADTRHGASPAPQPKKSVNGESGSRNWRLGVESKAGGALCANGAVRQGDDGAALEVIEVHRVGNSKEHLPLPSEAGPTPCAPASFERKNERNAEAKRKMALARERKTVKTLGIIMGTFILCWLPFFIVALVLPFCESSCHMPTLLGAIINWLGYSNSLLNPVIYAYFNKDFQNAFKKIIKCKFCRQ
Put plainly: displacement of labelled specific ligand from 5-HT1A receptors. The class given is binding. To be noted: no affinity.
Source text: as §1

A further experiment addresses dopaminergic sites D2 (Homo sapiens, UniProt P14416). Put plainly: displacement of labelled specific ligand from dopaminergic sites D2. The class given is binding. To be noted: no affinity.
Source text: as §1

Like-named read-outs stand apart in the source and are kept apart here.

Here are results for 6 compounds from patent US5604245A, “Use of 4-amino-1-(2-pyridyl)piperidines for the preparation of a medicament for the treatment of conditions deriving from disorders of the serotoninergic systems mediated by 5-HT3 receptors” (priority 1991, dated 1997).

One may read the Ki as the dissociation constant of the complex between target and ligand, obtained from inhibition or displacement.

T2 sequence (P23979 24-489): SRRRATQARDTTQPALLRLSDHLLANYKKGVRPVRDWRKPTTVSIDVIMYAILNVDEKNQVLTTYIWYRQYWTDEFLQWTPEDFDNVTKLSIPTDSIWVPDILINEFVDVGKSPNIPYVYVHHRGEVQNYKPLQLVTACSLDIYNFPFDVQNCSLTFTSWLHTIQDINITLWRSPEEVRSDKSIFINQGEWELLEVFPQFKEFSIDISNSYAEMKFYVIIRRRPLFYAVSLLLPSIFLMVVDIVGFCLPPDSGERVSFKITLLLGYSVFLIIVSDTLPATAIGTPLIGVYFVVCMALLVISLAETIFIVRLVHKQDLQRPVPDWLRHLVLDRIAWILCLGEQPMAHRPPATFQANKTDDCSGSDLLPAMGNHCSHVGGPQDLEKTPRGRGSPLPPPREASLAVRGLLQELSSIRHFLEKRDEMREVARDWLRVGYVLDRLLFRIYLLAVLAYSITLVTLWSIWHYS
5-HT1B receptors, sequence (P28564 whole entry): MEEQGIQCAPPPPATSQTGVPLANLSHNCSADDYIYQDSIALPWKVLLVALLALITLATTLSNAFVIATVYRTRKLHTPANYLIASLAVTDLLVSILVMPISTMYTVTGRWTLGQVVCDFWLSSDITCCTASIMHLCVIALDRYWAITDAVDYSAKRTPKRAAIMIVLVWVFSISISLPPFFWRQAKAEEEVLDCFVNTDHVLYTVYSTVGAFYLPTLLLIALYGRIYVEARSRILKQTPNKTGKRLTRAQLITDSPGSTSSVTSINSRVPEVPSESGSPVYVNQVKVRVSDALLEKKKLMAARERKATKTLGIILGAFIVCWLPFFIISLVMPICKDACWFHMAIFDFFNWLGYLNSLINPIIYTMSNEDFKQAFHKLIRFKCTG
adrenergic sites β1, sequence (P08588 whole entry): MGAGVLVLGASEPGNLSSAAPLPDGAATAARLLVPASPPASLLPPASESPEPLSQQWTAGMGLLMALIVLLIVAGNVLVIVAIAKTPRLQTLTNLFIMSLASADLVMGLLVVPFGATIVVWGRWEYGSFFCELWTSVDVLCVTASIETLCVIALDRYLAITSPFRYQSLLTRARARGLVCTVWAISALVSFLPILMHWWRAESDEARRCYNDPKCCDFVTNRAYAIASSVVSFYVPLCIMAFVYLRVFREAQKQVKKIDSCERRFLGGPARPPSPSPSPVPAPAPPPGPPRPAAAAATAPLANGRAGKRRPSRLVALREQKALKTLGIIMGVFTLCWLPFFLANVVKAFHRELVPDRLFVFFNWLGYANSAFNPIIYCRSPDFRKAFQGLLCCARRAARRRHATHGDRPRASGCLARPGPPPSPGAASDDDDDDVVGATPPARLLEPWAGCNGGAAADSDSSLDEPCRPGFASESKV
dopaminergic sites D1, sequence (P21728 whole entry): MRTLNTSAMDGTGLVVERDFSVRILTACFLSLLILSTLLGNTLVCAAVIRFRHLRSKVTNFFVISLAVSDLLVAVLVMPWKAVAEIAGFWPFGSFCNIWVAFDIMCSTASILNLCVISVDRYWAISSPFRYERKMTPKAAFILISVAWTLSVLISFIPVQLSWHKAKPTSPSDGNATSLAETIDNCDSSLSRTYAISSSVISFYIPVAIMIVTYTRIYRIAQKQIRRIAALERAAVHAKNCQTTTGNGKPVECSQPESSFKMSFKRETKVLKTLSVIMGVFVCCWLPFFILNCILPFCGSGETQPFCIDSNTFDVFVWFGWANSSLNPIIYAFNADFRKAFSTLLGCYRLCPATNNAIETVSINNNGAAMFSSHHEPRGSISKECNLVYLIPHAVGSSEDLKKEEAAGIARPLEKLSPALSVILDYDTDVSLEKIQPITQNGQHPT
serotonin uptake sites, sequence (P31645 whole entry): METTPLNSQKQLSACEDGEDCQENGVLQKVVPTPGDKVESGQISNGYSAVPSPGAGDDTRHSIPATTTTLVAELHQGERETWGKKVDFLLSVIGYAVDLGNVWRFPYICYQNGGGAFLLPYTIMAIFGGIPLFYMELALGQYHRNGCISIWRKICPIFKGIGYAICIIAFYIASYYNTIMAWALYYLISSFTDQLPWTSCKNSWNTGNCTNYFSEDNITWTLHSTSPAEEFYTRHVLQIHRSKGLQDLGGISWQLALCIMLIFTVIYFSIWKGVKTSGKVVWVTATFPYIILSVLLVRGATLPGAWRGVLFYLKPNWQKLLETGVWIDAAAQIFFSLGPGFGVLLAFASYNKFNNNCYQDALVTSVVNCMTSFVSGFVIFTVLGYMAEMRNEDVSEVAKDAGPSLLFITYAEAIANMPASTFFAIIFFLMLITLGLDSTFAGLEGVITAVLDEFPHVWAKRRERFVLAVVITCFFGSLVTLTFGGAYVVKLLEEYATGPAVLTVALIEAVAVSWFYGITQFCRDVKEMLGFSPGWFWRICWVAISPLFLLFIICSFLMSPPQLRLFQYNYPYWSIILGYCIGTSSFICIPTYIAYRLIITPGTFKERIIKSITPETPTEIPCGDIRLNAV
dopaminergic sites D2, sequence (P14416 whole entry): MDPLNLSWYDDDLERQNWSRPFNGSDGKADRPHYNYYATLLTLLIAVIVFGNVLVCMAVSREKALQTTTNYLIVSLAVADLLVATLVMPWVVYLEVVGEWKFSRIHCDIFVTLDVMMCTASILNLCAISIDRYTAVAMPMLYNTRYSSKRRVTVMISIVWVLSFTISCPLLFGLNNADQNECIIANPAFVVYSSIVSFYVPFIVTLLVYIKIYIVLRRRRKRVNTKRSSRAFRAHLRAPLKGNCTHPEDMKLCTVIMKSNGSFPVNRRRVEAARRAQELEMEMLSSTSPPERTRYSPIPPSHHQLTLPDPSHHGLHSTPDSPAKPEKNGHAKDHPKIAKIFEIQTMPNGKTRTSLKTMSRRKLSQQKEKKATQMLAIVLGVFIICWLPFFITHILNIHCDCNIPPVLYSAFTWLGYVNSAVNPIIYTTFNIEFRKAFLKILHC

With `Cc1[nH]c2ccc(O)cc2c1CCN` [2-methylserotonin, reference compound], at 5-HT3 receptors [1], the Ki is 1.11 µM. Moreover, at 5-HT3 receptors [2] (anaesthetised Sprague-Dawley rats, intravenous), the ED50 was found to be 0.005 mg/kg. In addition, the “turning behaviour after injection into the mice striatum” value in [3] is recorded as “evokes a turning behaviour”.

Turning to `Cl.NC1CCN(c2cccc(Cl)n2)CC1` [CM 57227, 4-amino-1-(6-chloro-2-pyridyl)piperidine hydrochloride], the Ki on 5-HT1B receptors is above 10 µM; on 5-HT3 receptors [1] (0.5 nM [3H] BRL 43694, 30 minutes at 25° C., rat cortical membranes, read-out: Ki, displacement of [3H] BRL 43694), 0.193 µM; at adrenergic sites α2, above 10 µM; on serotonin uptake sites, above 10 µM; on adrenergic sites α1, above 10 µM; at dopaminergic sites D1, above 10 µM. Further, the Ki at adrenergic sites β1, on 5-HT1A receptors and at dopaminergic sites D2 was above 10 µM each time. Besides, at central 5-HT3 receptors (mice, oral administration, compared with ID50 i.p. of 1 mg/kg), the “ID50 p.o., extrapolated to zero dilution” value is listed as “of the same magnitude order”. The ED50 on central 5-HT3 receptors (mouse, ip, 0.5 h, read-out: ID50 i.p., extrapolated to zero dilution (dose inhibiting by 50% [3H] BRL 43694 binding), mice, 30 minutes after i.p. administration) was 1 mg/kg; on 5-HT3 receptors [2] (iv), 0.00829 mg/kg; in experiment [3] (Mus musculus, ip, mice, test compound i.p., ondansetron 1 mg/kg i.p., intrastriatal 2-methylserotonin, read-out: ED50, blockade of ondansetron antagonism of 2-methylserotonin-induced turning behaviour), 0.25 mg/kg. For the same compound, the “ID50 for [3H] BRL 43694 binding compared with ID50 for [3H] paroxetine (serotonin uptake sites)” value at central 5-HT3 receptors (same experimental conditions) was “markedly lower”. Further, the “dry weight of feces excreted during 90 minutes” value in the experiment on 5-HT3 receptors [4] (2.5 mg/kg s.c.) is listed as “about 1.3 g”. For the same compound, the “turning behaviour after injection into the mice striatum” value in experiment [3] was “evokes a turning behaviour”.

On to `CN1C2CCC1CC(OC(=O)c1c[nH]c3ccccc13)C2` (stereo not shown) [ICS 205-930], for which the “antagonism of the fecal excretion stimulating activity of compounds of formula (I')” value in the experiment on 5-HT3 receptors [4] is “antagonised”. Further, the “inhibition of the Bezold-Jarish effect evoked by compounds of formula (I')” value (from here on “inhibition”) on 5-HT3 receptors [2] is on record as “inhibited”.

Turning to `CC[C@@H](CO)NC(=O)[C@@H]1C=C2c3cccc4c3c(cn4C)C[C@H]2N(C)C1` [methysergide], the “inhibition” value against 5-HT3 receptors [2] is listed as “not inhibited”.

For the compound `NCCc1c[nH]c2ccc(O)cc12` [serotonin], the ED50 on 5-HT3 receptors [2] (iv) came out at 0.0136 mg/kg.

Regarding `COc1cc(N)c(Cl)cc1C(=O)NC1CN2CCC1CC2` (stereo not shown) [zacopride], the “antagonism of the fecal excretion stimulating activity of compounds of formula (I')” value with 5-HT3 receptors [4] is listed as “antagonised”. In addition, the “inhibition” value against 5-HT3 receptors [2] is on record as “inhibited”.
